These results are taken from PMC11593952 (International Journal of Molecular Sciences, 2024).

One may read the IC50 as the concentration that gives 50% inhibition. By AUC is commonly meant the area under the concentration-time curve, a measure of exposure. Read a high AUC as more exposure. The term AUC(0-inf) denotes the area under the concentration-time curve extrapolated to infinity. One may read the AUC(0-t) as exposure summed from dosing to a finite time, without extrapolation to infinity. Read a high AUC(0-t) as high exposure. As usually defined, the Cmax is the maximum level reached in the sampled fluid or tissue. Broadly, the MRT last is the average time that molecules of a dose stay in the body. What is called Tmax is the time from dosing to the highest level. Broadly, the half-life is the time in which the quantity being followed falls by half. Lower therefore signals fast loss. Usually Vd stands for the apparent volume that relates the amount in the body to the concentration in plasma or blood. Lower therefore signals confinement near the circulation. A word on the Kp: it is the ratio of the level in a tissue or fluid to that in plasma or blood. As a reminder, the bioavailability is dose-corrected exposure relative to a reference, in per cent.

Series [1] relates to eqBuChE. The conditions noted are these: eqBuChE from horse serum; mean ± SEM, at least three experiments; read-out: IC50 BuChE; cited from earlier work.
Series [2] concerns eeAChE. Conditions: eeAChE from electric eel, cited from earlier work; for IC50: mean ± SEM, at least three experiments.
The conditions of series [3]: cited from earlier work.
Series [4] can be described thus: in vivo. The conditions noted are these: for exposure in the plasma, fold higher than CBD, L1, and L3: oral. The method, then: (§1) Animal experiments were conducted in accordance with the National Institutes of Health Laboratory Animal Care and Use Guidelines. Male SPF SD rats from the Animal Center of Anhui Medical University (Hefei, China) were used for the experiment. […] At each time point (0.5, 1, 2, 4, and 8 h) after administration, samples of brain, heart, kidney, liver, lung, and spleen were collected from each rat for tissue distribution study. While for pharmacokinetic study, the plasma samples were gathered from the suborbital vein at 5, 15, 30, and 45 min and 1, 2, 4, 8, and 12 h after oral administration. The maintenance and treatment procedures for experimental animals were approved by the Animal Care and Use Committee of Anhui Medical University (approval number: LLSC20190274). Room temperature was 22 ± 2 °C, using a light/dark (12: 12 h) cycle, the animals were free to consume food and water one day before the experiment.
(§2) An aliquot of 60 μL plasma sample was spiked with 60 µL aqueous ascorbic acid (0.1%) and 20 μL of IS working solution (300 ng/mL). After vortexing for 30 s, 400 µL MTBE was added to plasma sample for liquid–liquid extraction. The mixture was vigorously mixed for 10 min and centrifuged at 12,000 rpm at 4 °C for 5 min; approximately 400 µL of supernatant was transferred to a clean 1.5 mL centrifuge tube and dried under a gentle stream of nitrogen gas. Subsequently, the residue was reconstituted with 100 µL of MeOH/water (7: 3, v/v), vortex-mixed for 2 min, and followed by centrifugation at 12,000 rpm for 20 min. Finally, 20 μL of the supernatant was injected into the UPLC-HRMS system for measurement. The tissue sample (100 mg) was homogenized in normal saline solution (1 mL), 600 μL homogenate sample was spiked with 60 µL aqueous ascorbic acid (0.1%) and 50 μL of the IS working solution (1000 ng/mL), and 1.2 mL MTBE was added for extraction. Then, 1 mL of supernatant was dried and proceeded as plasma sample pretreatment (Figure S1).
(§3) Quantitative analysis using Dionex Ultimate 3000 chromatography hyphenated to Q-Exactive plus Orbitrap mass spectrometer system (Thermo Fisher Scientific, Waltham, MA, USA). The analytes were detected in Full MS/dd-MS^2 mode to choose the parent ion and optimize the retention time; then, we used the parallel reaction monitoring (PRM) mode through positive ionization condition for determination. Xcalibur 4.1 software (Thermo Fisher Scientific) was used for data acquisition and processing.
Chromatographic separation was achieved on a Shimadzu-pack GIST column (50 mm × 2.1 mm, 2 μm, Shimadzu Company, Kyoto, Japan). Binary mobile solvents consisted of water (containing 0.1% FA, v/v) (A) and acetonitrile (B), the gradient program was as follows: 0 min 60% A → 1 min 60% A → 1.5 min 20% A → 7 min 20% A → 7.1 min 60% A → 8.5 min 60% A. The flow rate was set at 0.30 mL/min and the column temperature was 40 °C. The typical source parameters were optimized as follows: spray voltage: 4500 V; capillary temperature: 320 °C; auxiliary gas heater temperature: 200 °C; pressure of sheath gas: 320 kPa; auxiliary gas: 50 kPa.
Phoenix/WinNonlin software (version 6.4; Pharsight, Mountain View, CA, USA) was used to calculate the AUC and other pharmacokinetic parameters in plasma or tissue for each drug in a non-compartmental model.

Series [5] is described as follows: in vivo. Conditions: for Cmax / Kp / selectivity ratio: male, SD, rat, in vivo; for Cmax / Kp: po; for Cmax: 15 mg/kg; for Kp: AUCtissue/AUCplasma; for AUCbrain: brain; for AUCheart: heart; for AUCkidney: kidney; for AUCliver: liver; for AUClung: lung; for AUCspleen: spleen. The method, then:
Drug exposure in tissue is calculated by drug exposure in the plasma and tissue/plasma distribution coefficient (Kp), as shown in Equation (1):Drug exposure in the tissue = drug exposure in the plasma × Kp(1) where drug exposure in the plasma and the tissue can be calculated by the drug concentration vs. time curve, and Kp values can be calculated by Ctissue/Cplasma or AUCtissue/AUCplasma. […] It is worth mentioning that Kp can be evaluated by the ratio of free fraction of drug candidate in plasma vs. in tissues in steady state. Nevertheless, this assessment is based on “free drug hypothesis” theory, which presumes that free drug concentration in tissue is close to that in plasma.
Dose escalation tests are always evaluated during clinical phase I/II trials, and MTD is constantly associated with drug exposure in certain toxicity-related organs. […] To evaluate the balance between efficacy and toxicity for drug candidates, drug tissue selectivity is a crucial parameter and defined as follows in Equation (2), where the sum of Ctissue or AUCtissue is total drug concentration or AUC in different tissues. Drug tissue selectivity = Ctissue/ΣCtissue or AUCtissue/ΣAUCtissue(2)
as §1, §2, §3
Chromatographic separation was achieved on a Shimadzu-pack GIST column (50 mm × 2.1 mm, 2 μm, Shimadzu Company, Kyoto, Japan).

The mark [6] stands for this setting: male, SD, rat, in vivo, po, 15 mg/kg.
Setting [7] is: rats, single intragastric 15 mg/kg, plasma.

SMILES strings stand for the structures. Where two headings read alike, the source gives them in different places.

Turning to `C=C(C)[C@@H]1CCC(C)=C[C@H]1c1c(O)cc(CCCCC)cc1O` [CBD, Cannabidiol, reference compound], the 50% inhibitory concentration (IC50) in series [1] was 670 ± 60 nM. The IC50 in series [2] was 17100 ± 2430 nM. Further, in series [3], the “Tmax (reported values)” value is 0 to 4 h and the “t1/2 (reported values)” value is 1.4 to 10.9 h. In series [4] (setting [6]), this molecule displayed an area under the curve (AUC) of 158 ng·h/mL, an AUC(0-inf) of 168 ± 11.5 ng·h/mL, an AUC(0-t) of 158 ± 10.6 ng·h/mL and a Cmax of 48.9 ± 11 ng/mL. Moreover, in series [4] (setting [6]), the MRT last worked out at 2.84 ± 0.23 h, the Tmax is 1.2 ± 0.45 h and the half-life is 3.7 ± 1.26 h. In series [4] (setting [7]), this molecule yielded a CL of 1492 ± 107 mL/min/kg and a volume of distribution (Vd) of 474.16 ± 155.23 L/kg.
With `C=C(C)C1CCC(C)=CC1c1c(O)cc(CCCCC)cc1OC(=O)NC` (stereo not shown) [Compound L1], in series [1], the IC50 is 128 ± 22 nM. Also, the IC50 in series [2] is 18900 ± 1110 nM. In series [4] (setting [6]), this molecule had an AUC of 191 ng·h/mL, an AUC(0-inf) of 197 ± 58 ng·h/mL, an AUC(0-t) of 191 ± 58.7 ng·h/mL and a Cmax of 120 ± 15.9 ng/mL. In addition, in series [4] (setting [6]), the MRT last turned out to be 2.05 ± 0.47 h, the Tmax is 0.22 ± 0.07 h and the half-life was 2.7 ± 1.27 h. The “metabolism to CBD observed in plasma” value in series [4] (rats, intragastric administration) is given as “can be metabolized to produce CBD”. For the same molecule, in series [4] (setting [7]), the CL came to 1353 ± 361.8 mL/min/kg and the Vd came out at 319.94 ± 171.55 L/kg.
Regarding `C=C(C)C1CCC(C)=CC1c1c(O)cc(CCCCC)cc1OC(=O)N(C)CC` (stereo not shown) [Compound L2], the IC50 in series [1] is 77 ± 5 nM. Further, the 50% inhibitory concentration (IC50) in series [2] is 15000 ± 1020 nM. For the same molecule, in series [4] (setting [6]), the Cmax turned out to be 127 ± 23.6 ng/mL, the mean residence time (MRT last) is 3.44 ± 0.22 h, the Tmax came out at 1.8 ± 0.45 h and the half-life is 2.64 ± 0.45 h. Besides, the “exposure in the plasma, fold higher than CBD, L1, and L3” value in series [4] (rats) is over 3 fold. In series [4] (setting [7]), the CL stood at 434.5 ± 74.8 mL/min/kg and the Vd amounted to 99.38 ± 23.95 L/kg. In addition, the Cmax in series [5] amounted to 56 ng/g. This molecule also registered a Kp in series [5] (Kp brain, rats) of 0.42. This molecule came in with a Kp in series [5] (Kp heart, rats) of 2.63. This molecule also had a Kp in series [5] (Kp kidney, rats) of 5.51. In series [5] (Kp liver, rats), this molecule displayed a Kp of 5.3. This molecule gave a Kp in series [5] (Kp lung, rats) of 3.27. For the same molecule, the Kp in series [5] (Kp spleen, rats) turned out to be 2.41. Moreover, in series [5] (tissue selectivity in the brain, fold higher than L4, AUCtissue/ΣAUCtissue, L2 vs L4), the selectivity ratio is 21. Moreover, the selectivity ratio in series [5] (tissue selectivity in the kidney, fold lower than L4, AUCtissue/ΣAUCtissue, L2 vs L4) amounted to 1.2. Also, the selectivity ratio in series [5] (tissue selectivity in the liver, fold lower than L4, AUCtissue/ΣAUCtissue, L2 vs L4) came out at 1.8. In addition, in series [5] (rats, oral 15 mg/kg), the AUCbrain is recorded as 213.8 ng·h/g, the AUCheart was 1331.9 ng·h/g, the AUCkidney is given as 2790.2 ng·h/g and the AUCliver came to 2684.5 ng·h/g. In series [5] (rats, oral 15 mg/kg), this molecule gave an AUClung of 1655.0 ng·h/g and an AUCspleen of 1220.9 ng·h/g. Further, in series [5] (rats, oral 15 mg/kg, L2 vs L4), the “exposure in the kidney, fold lower than L4” value was determined as 2.8 fold and the “exposure in the liver, fold lower than L4” value is 1.8 fold. In series [5] (rats, oral, L2 vs L4), the “brain concentration relative to L4” value is listed as “fivefold higher”.
For the molecule `C=C(C)C1CCC(C)=CC1c1c(O)cc(CCCCC)cc1OC(=O)N1CCCC1` (stereo not shown) [Compound L3], in series [1], the IC50 is 390 ± 40 nM. Also, in series [4] (setting [6]), the AUC came to 182 ng·h/mL, the AUC(0-inf) worked out at 200 ± 32.5 ng·h/mL, the AUC(0-t) came out at 182 ± 13.9 ng·h/mL and the Cmax came to 60 ± 8.63 ng/mL. Further, in series [4] (setting [6]), the MRT last turned out to be 2.72 ± 0.6 h, the Tmax was 0.95 ± 0.11 h and the half-life is 3.09 ± 1.52 h. In series [4] (setting [7]), the CL was determined as 1273 ± 194.7 mL/min/kg and the Vd is reported as 320.94 ± 106.75 L/kg.
Consider `C=C(C)C1CCC(C)=CC1c1c(O)cc(CCCCC)cc1OC(=O)N(C)Cc1ccc(Cl)cc1` (stereo not shown) [Compound L4], for which the IC50 in series [1] was 5.3 ± 1.2 nM. Also, the “Inhibition Rate % at 20 µM, AChE” value in series [2] (at 20 µM) was 21.4 ± 2.8%. In series [4] (setting [6]), the Cmax worked out at 211 ± 30.7 ng/mL, the mean residence time MRT last is 2.38 ± 0.21 h, the Tmax was 0.8 ± 0.11 h and the half-life is 2.17 ± 0.19 h. Further, the “exposure in the plasma, fold higher than CBD, L1, and L3” value in series [4] (rats) is reported as over 3 fold. In series [4] (setting [7]), this molecule registered a CL of 483.2 ± 100 mL/min/kg and a Vd of 91.52 ± 22.81 L/kg. This molecule also returned a Cmax in series [5] of 19 ng/g. In series [5] (Kp brain, rats), this molecule returned a Kp of 0.088. The same molecule returned a Kp in series [5] (Kp heart, rats) of 15.1. This molecule gave a Kp in series [5] (Kp kidney, rats) of 15.7. The molecule also displayed a Kp in series [5] (Kp liver, rats) of 10.1. In series [5] (Kp lung, rats), this molecule showed a Kp of 15.1. The molecule also returned a Kp in series [5] (Kp spleen, rats) of 11.7. In series [5] (rats, oral 15 mg/kg), this molecule returned an AUCbrain of 43.2 ng·h/g, an AUCheart of 7431.3 ng·h/g, an AUCkidney of 7723.4 ng·h/g and an AUCliver of 4951.2 ng·h/g. In series [5] (rats, oral 15 mg/kg), this molecule came in with an AUClung of 7421.8 ng·h/g and an AUCspleen of 5773.9 ng·h/g.
As to `C=C(C)[C@@H]1CCC(C)=C[C@H]1c1c(O)cc(CCCCC)cc1O` [L1→CBD], in series [4] (setting [7]), the AUC0-T came out at 165.91 ± 87.56 ng·h/mL, the “AUC0-∞” value is 172.51 ± 84.52 ng·h/mL, the CL came to 1718.8 ± 707.3 mL/min/kg and the Cmax worked out at 94.59 ± 27.06 ng/mL. In series [4] (setting [7]), the MRT0-T amounted to 2.21 ± 0.42 h, the Tmax was determined as 0.27 ± 0.15 h, the Vd is given as 577.46 ± 442.26 L/kg and the t1/2 is 3.43 ± 1.64 h.
For `CNC(=O)Oc1ccc2c(c1)[C@]1(C)CCN(C)[C@@H]1N2C` [physostigmine], in series [3], the “drug concentration in brains after oral vs intramuscular administration, times less” value is 350 times and the “drug concentration in plasma after oral vs intramuscular administration, times less” value is on record as 200 times. For the same molecule, the bioavailability in series [3] (first-pass metabolism) is 2%.
As for `CCN(C)C(=O)Oc1cccc([C@H](C)N(C)C)c1` [rivastigmine, reference compound], the bioavailability in series [3] was 36–40%.
